Reference: US6737383B1, “Herbicidal oxadiazolidines” (priority 1999, dated 2004)

Assays:
wheat = test: Test B pre/postemergence wheat; type: in vivo, Triticum aestivum
Outline: (§1)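 Test chemicals in a non-phytotoxic solvent mixture with surfactant were sprayed preemergence onto planted seeds and postemergence onto plants 2 to 18 cm tall (1- to 4-leaf stage). After twelve to sixteen days in a greenhouse, injury was visually rated against untreated controls from 0 (no effect) to 10 (complete control).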

sugar beet = test: Test B pre/postemergence sugar beet; type: in vivo, Beta vulgaris
Outline: as §1

crabgrass = test: Test B pre/postemergence crabgrass; type: in vivo, Digitaria sanguinalis
Outline: as §1

velvetleaf = test: Test B pre/postemergence velvetleaf; type: in vivo, Abutilon theophrasti
Outline: as §1

corn = test: Test B pre/postemergence corn; type: in vivo, Zea mays
Outline: as §1

morningglory = test: Test B pre/postemergence morningglory; type: in vivo, Ipomoea hederacea
Outline: as §1

blackgrass = test: Test B pre/postemergence blackgrass; type: in vivo, Alopecurus myosuroides
Outline: as §1

surinam grass = test: Test B pre/postemergence surinam grass; type: in vivo, Brachiaria decumbens
Outline: as §1

purple nutsedge = test: Test B pre/postemergence purple nutsedge; type: in vivo, Cyperus rotundus
Outline: as §1

rape = test: Test B pre/postemergence rape; type: in vivo, Brassica napus
Outline: as §1

wild oat = test: Test B pre/postemergence wild oat; type: in vivo, Avena fatua
Outline: as §1

bedstraw = test: Test B pre/postemergence bedstraw; type: in vivo, Galium aparine
Outline: as §1

cocklebur = test: Test B pre/postemergence cocklebur; type: in vivo, Xanthium strumarium
Outline: as §1

pigweed = test: Test B pre/postemergence pigweed; type: in vivo, Amaranthus retroflexus
Outline: as §1

[1] = Postemergence, Rate 125 g/ha, scale of 0 to 10 where 0 is no effect and 10 is complete control
[2] = Preemergence, Rate 62 g/ha, scale 0 to 10 (0 no effect, 10 complete control)
[3] = Preemergence, Rate 125 g/ha, 0 is no effect, 10 is complete control
[4] = Preemergence, Rate 250 g/ha, scale 0 to 10, 0 is no effect, 10 is complete control
[5] = Preemergence, Rate 500 g/ha, scale 0 to 10 (0 no effect, 10 complete control)
[6] = Rate 62 g/ha, Postemergence, scale of 0 to 10 where 0 is no effect and 10 is complete control
[7] = Rate 250 g/ha, Postemergence, scale 0 to 10, 0 is no effect, 10 is complete control
[8] = Rate 500 g/ha, Postemergence, scale 0 to 10

## Cc1ccc(N(C(=O)n2oc(=O)n(C(C)C)c2=O)C(C)C)cc1 [Compound 132]
wheat; [1]
  Wheat plant response rating: 2
wheat; [2]
  Wheat plant response rating: 0
wheat; [3]
  Wheat plant response rating (0 to 10 scale): 0
wheat; [4]
  Wheat plant response rating: 2
wheat; [5]
  Wheat plant response rating: 4
wheat; [6]
  Wheat plant response rating: 0
wheat; [7]
  Plant response rating, Wheat: 2
wheat; [8]
  Wheat plant response rating: 6
Sugar beet; [1]
  Sugarbeets plant response rating: 0
Sugar beet; [2]
  Sugarbeets plant response rating: 2
Sugar beet; [3]
  Sugarbeets plant response rating (0 to 10 scale): 5
Sugar beet; [4]
  Sugarbeets plant response rating: 6
Sugar beet; [5]
  Sugarbeets plant response rating: 8
Sugar beet; [6]
  Sugarbeets plant response rating: 0
Sugar beet; [7]
  Plant response rating, Sugarbeets: 0
Sugar beet; [8]
  Sugarbeets plant response rating: 2
crabgrass; [1]
  Crabgrass plant response rating: 7
crabgrass; [2]
  Crabgrass plant response rating: 7
crabgrass; [3]
  Crabgrass plant response rating (0 to 10 scale): 7
crabgrass; [4]
  Crabgrass plant response rating: 9
crabgrass; [5]
  Crabgrass plant response rating: 9
crabgrass; [6]
  Crabgrass plant response rating: 5
crabgrass; [7]
  Plant response rating, Crabgrass: 8
crabgrass; [8]
  Crabgrass plant response rating: 9
velvetleaf; [1]
  Velvetleaf plant response rating: 2
velvetleaf; [2]
  Velvetleaf plant response rating: 3
velvetleaf; [3]
  Velvetleaf plant response rating (0 to 10 scale): 4
velvetleaf; [4]
  Velvetleaf plant response rating: 6
velvetleaf; [5]
  Velvetleaf plant response rating: 10
velvetleaf; [6]
  Velvetleaf plant response rating: 2
velvetleaf; [7]
  Plant response rating, Velvetleaf: 3
velvetleaf; [8]
  Velvetleaf plant response rating: 3
corn; [1]
  Corn plant response rating: 0
corn; [2]
  Corn plant response rating: 0
corn; [3]
  Corn plant response rating (0 to 10 scale): 0
corn; [4]
  Corn plant response rating: 7
corn; [5]
  Corn plant response rating: 8
corn; [6]
  Corn plant response rating: 0
corn; [7]
  Plant response rating, Corn: 4
corn; [8]
  Corn plant response rating: 6
morningglory; [1]
  Morningglory plant response rating: 6
morningglory; [2]
  Morningglory plant response rating: 0
morningglory; [3]
  Morningglory plant response rating (0 to 10 scale): 0
morningglory; [4]
  Morningglory plant response rating: 0
morningglory; [5]
  Morningglory plant response rating: 2
morningglory; [6]
  Morningglory plant response rating: 3
morningglory; [7]
  Plant response rating, Morningglory: 6
morningglory; [8]
  Morningglory plant response rating: 7
blackgrass; [1]
  Blackgrass plant response rating: 2
blackgrass; [2]
  Blackgrass plant response rating: 3
blackgrass; [3]
  Blackgrass plant response rating (0 to 10 scale): 6
blackgrass; [4]
  Blackgrass plant response rating: 9
blackgrass; [5]
  Blackgrass plant response rating: 10
blackgrass; [6]
  Blackgrass plant response rating: 0
blackgrass; [7]
  Plant response rating, Blackgrass: 8
blackgrass; [8]
  Blackgrass plant response rating: 9
Surinam grass; [1]
  B. signalgrass plant response rating: 3
Surinam grass; [2]
  B. signalgrass plant response rating: 0
Surinam grass; [3]
  B. signalgrass plant response rating (0 to 10 scale): 3
Surinam grass; [4]
  B. signalgrass plant response rating: 7
Surinam grass; [5]
  B. signalgrass plant response rating: 9
Surinam grass; [6]
  B. signalgrass plant response rating: 0
Surinam grass; [7]
  Plant response rating, B. signalgrass: 4
Surinam grass; Rate 500 g/ha, Postemergence, scale of 0 to 10 where 0 is no effect and 10 is complete control
  B. signalgrass plant response rating: 7
Purple nutsedge; [1]
  Nutsedge plant response rating: 2
Purple nutsedge; [2]
  Nutsedge plant response rating: 0
Purple nutsedge; [3]
  Nutsedge plant response rating (0 to 10 scale): 0
Purple nutsedge; [4]
  Nutsedge plant response rating: 0
Purple nutsedge; [5]
  Nutsedge plant response rating: 9
Purple nutsedge; [6]
  Nutsedge plant response rating: 0
Purple nutsedge; [7]
  Plant response rating, Nutsedge: 3
Purple nutsedge; [8]
  Nutsedge plant response rating: 4
rape; [1]
  Rape plant response rating: 0
rape; [2]
  Rape plant response rating: 0
rape; [3]
  Rape plant response rating (0 to 10 scale): 0
rape; [4]
  Rape plant response rating: 0
rape; [5]
  Rape plant response rating: 8
rape; [6]
  Rape plant response rating: 0
rape; [7]
  Plant response rating, Rape: 0
rape; [8]
  Rape plant response rating: 0
Wild oat; [1]
  Wild oats plant response rating: 2
Wild oat; [2]
  Wild oats plant response rating: 3
Wild oat; [3]
  Wild oats plant response rating (0 to 10 scale): 5
Wild oat; [4]
  Wild oats plant response rating: 8
Wild oat; [5]
  Wild oats plant response rating: 9
Wild oat; [6]
  Wild oats plant response rating: 0
Wild oat; [7]
  Plant response rating, Wild oats: 2
Wild oat; [8]
  Wild oats plant response rating: 3
bedstraw; [1]
  Bedstraw plant response rating: 0
bedstraw; [2]
  Bedstraw plant response rating: 0
bedstraw; [3]
  Bedstraw plant response rating (0 to 10 scale): 0
bedstraw; [4]
  Bedstraw plant response rating: 9
bedstraw; [5]
  Bedstraw plant response rating: 10
bedstraw; [6]
  Bedstraw plant response rating: 0
bedstraw; [7]
  Plant response rating, Bedstraw: 2
bedstraw; Rate 500 g/ha, Postemergence, scale 0 to 10, 0 no effect, 10 complete control
  Bedstraw plant response rating: 7
cocklebur; [1]
  Cocklebur plant response rating: 0
cocklebur; [2]
  Cocklebur plant response rating: 0
cocklebur; [3]
  Cocklebur plant response rating (0 to 10 scale): 0
cocklebur; [5]
  Cocklebur plant response rating: 0
cocklebur; [6]
  Cocklebur plant response rating: 0
cocklebur; [7]
  Plant response rating, Cocklebur: 0
cocklebur; [8]
  Cocklebur plant response rating: 0
pigweed; [1]
  Redroot pigweed plant response rating: 0
pigweed; [2]
  Redroot pigweed plant response rating: 2
pigweed; [3]
  Redroot pigweed plant response rating (0 to 10 scale): 6
pigweed; [4]
  Redroot pigweed plant response rating: 7
pigweed; [5]
  Redroot pigweed plant response rating: 7
pigweed; [6]
  Redroot pigweed plant response rating: 0
pigweed; [7]
  Plant response rating, Redroot pigweed: 0
pigweed; [8]
  Redroot pigweed plant response rating: 2
